Calls of active or inactive are those of the source. The rule behind the calls is not given here.
Experiments:
[1] = system: Mycobacterium tuberculosis; assay: Antimycobacterial activity against Mycobacterium tuberculosis H37Rv ACTT 25618 assessed as inhibition of visible growth incubated for 7 days by micro plate alamar blue assay; type: functional; details: H37Rv ACTT 25618, 168 h, time 7 day
[2] = Metabolic stability in human liver microsomes assessed as half life in presence of NADPH by LC/MS analysis; type: ADME, Microsome
[3] = Metabolic stability in human liver microsomes assessed as clearance in presence of NADPH by LC/MS analysis; type: ADME, Microsome; details: read-out: CLH
[4] = target: T1, Decaprenylphosphoryl-beta-D-ribose oxidase (Mycobacterium tuberculosis (strain ATCC 25618 / H37Rv), UniProt P9WJF1); assay: Inhibition of Mycobacterium tuberculosis recombinant DprE1 expressed in Escherichia coli assessed as formation of resorufin using FPR as substrate by Amplex Red […] coupled assay
T1 sequence (P9WJF1 whole entry): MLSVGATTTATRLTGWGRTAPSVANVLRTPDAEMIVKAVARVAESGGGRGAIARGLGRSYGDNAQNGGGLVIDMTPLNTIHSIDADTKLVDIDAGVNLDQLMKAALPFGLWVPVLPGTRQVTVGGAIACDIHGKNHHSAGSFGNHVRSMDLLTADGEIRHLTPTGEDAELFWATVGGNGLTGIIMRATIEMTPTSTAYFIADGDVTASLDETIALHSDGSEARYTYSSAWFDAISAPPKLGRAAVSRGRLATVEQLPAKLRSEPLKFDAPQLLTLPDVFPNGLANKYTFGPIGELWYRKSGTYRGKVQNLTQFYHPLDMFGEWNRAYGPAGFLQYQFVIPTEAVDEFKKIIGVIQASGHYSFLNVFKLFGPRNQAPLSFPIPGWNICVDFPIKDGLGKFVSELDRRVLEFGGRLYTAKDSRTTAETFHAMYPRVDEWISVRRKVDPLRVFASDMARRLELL

[5] = target: T2, Decaprenylphosphoryl-beta-D-ribose oxidase (Mycobacterium tuberculosis (strain ATCC 25618 / H37Rv)) (UniProt P9WJF1); assay: Inhibition of Mycobacterium tuberculosis H37Rv DprE1 assessed as increase in trehalose dimycolates accumulation at 100 x MIC incubated for 24 hrs using [14C]acetate by TLC based metabolic labelling assay
T2 sequence (whole entry): T1 sequence (P9WJF1 whole entry)

[6] = system: HepG2; assay: Cytotoxicity against human HepG2 cells assessed as cell viability incubated for 48 hrs by CCK-8 assay; type: cell-based; details: hepg2, 48 h
[7] = target: T2, Decaprenylphosphoryl-beta-D-ribose oxidase (Mycobacterium tuberculosis (strain ATCC 25618 / H37Rv)); assay: Inhibition of Mycobacterium tuberculosis H37Rv DprE1 assessed as increase in trehalose monomycolates accumulation at 100 x MIC incubated for 24 hrs using [14C]acetate by TLC based metabolic labelling assay

Row | SMILES | MIC [1] | other results
1 | CN(Cc1csc(-c2ccc(F)cc2)n1)c1nc(=O)c2cc(S(C)(=O)=O)cc([N+](=O)[O-])c2s1 | 0.057 µM | –
2 | CN(Cc1cn(-c2ccc(F)cc2F)nn1)c1nc(=O)c2cc(S(C)(=O)=O)cc([N+](=O)[O-])c2s1 | 0.024 µM | –
3 | CN(Cc1nnc(-c2cccc(F)c2)s1)c1nc(=O)c2cc(S(C)(=O)=O)cc([N+](=O)[O-])c2s1 | 0.045 µM | –
4 | CN(CCN(C)c1nc(=O)c2cc(S(C)(=O)=O)cc([N+](=O)[O-])c2s1)CC1CCCCC1 | 0.148 µM | –
5 | CN(Cc1coc(C2CCCCC2)n1)c1nc(=O)c2cc(S(C)(=O)=O)cc([N+](=O)[O-])c2s1 | 0.433 µM | –
6 | CN(Cc1cn(-c2cccc(F)c2)nn1)c1nc(=O)c2cc(S(C)(=O)=O)cc([N+](=O)[O-])c2s1 | 0.014 µM | –
7 | CN(Cc1nnc(-c2ccc(F)cc2F)o1)c1nc(=O)c2cc(S(C)(=O)=O)cc([N+](=O)[O-])c2s1 | 0.045 µM | –
8 | Cc1cccc(-n2cc(CN(C)c3nc(=O)c4cc(S(C)(=O)=O)cc([N+](=O)[O-])c4s3)nn2)c1 | 0.1 µM | –
9 | CN(Cc1csc(-c2ccccc2)n1)c1nc(=O)c2cc(S(C)(=O)=O)cc([N+](=O)[O-])c2s1 | 0.023 µM | half-life [2]: 16.2 min; CLint scaled [3]: 107 mL/min/kg
10 | CN(Cc1cn(C2CCCCC2)nn1)c1nc(=O)c2cc(S(C)(=O)=O)cc([N+](=O)[O-])c2s1 | 0.047 µM | –
11 | CN(Cc1cn(-c2ccc(F)c(F)c2)nn1)c1nc(=O)c2cc(S(C)(=O)=O)cc([N+](=O)[O-])c2s1 | 0.022 µM | –
12 | O=c1nc(N2CCN(CC3CCCCC3)CC2)sc2c([N+](=O)[O-])cc(C(F)(F)F)cc12 [MACOZINONE] | < 0.2 ng/mL | half-life [2]: 76.3 min; CLint scaled [3]: 22.8 mL/min/kg
13 | CN(Cc1nnc(-c2cccc(F)c2)o1)c1nc(=O)c2cc(S(C)(=O)=O)cc([N+](=O)[O-])c2s1 | 0.049 µM | –
14 | CN(Cc1cn(-c2ccccc2)nn1)c1nc(=O)c2cc(S(C)(=O)=O)cc([N+](=O)[O-])c2s1 | 0.0006 µM | IC50 [4]: 780 nM; half-life [2]: 53.7 min; Activity [5]: Active; CLint scaled [3]: 32.4 mL/min/kg; Activity [6]: Non-Toxic; Activity [7]: Active
15 | CN(Cc1cn(-c2ccc(F)cc2)nn1)c1nc(=O)c2cc(S(C)(=O)=O)cc([N+](=O)[O-])c2s1 | 0.024 µM | –
16 | CN(Cc1nnc(-c2cc(F)cc(F)c2)s1)c1nc(=O)c2cc(S(C)(=O)=O)cc([N+](=O)[O-])c2s1 | 0.023 µM | –
17 | CN(Cc1nnc(-c2cc(F)cc(F)c2)o1)c1nc(=O)c2cc(S(C)(=O)=O)cc([N+](=O)[O-])c2s1 | 0.022 µM | –
18 | CN(Cc1cn(-c2c(F)cccc2F)nn1)c1nc(=O)c2cc(S(C)(=O)=O)cc([N+](=O)[O-])c2s1 | 0.28 µM | –
19 | CN(Cc1cn(-c2cccc(C#N)c2)nn1)c1nc(=O)c2cc(S(C)(=O)=O)cc([N+](=O)[O-])c2s1 | 0.048 µM | –
20 | CN(Cc1cn(Cc2ccccc2)nn1)c1nc(=O)c2cc(S(C)(=O)=O)cc([N+](=O)[O-])c2s1 | 0.309 µM | –
21 | CN(Cc1nnc(-c2ccccc2)o1)c1nc(=O)c2cc(S(C)(=O)=O)cc([N+](=O)[O-])c2s1 | 0.03 µM | IC50 [4]: 2100 nM; half-life [2]: 45.9 min; Activity [5]: Active; CLint scaled [3]: 37.8 mL/min/kg; Activity [6]: Non-Toxic; Activity [7]: Active
22 | CS(=O)(=O)c1cc([N+](=O)[O-])c2sc(N3CCN(CC4CCCCC4)CC3)nc(=O)c2c1 | – | half-life [2]: 25.8 min; CLint scaled [3]: 89.8 mL/min/kg
23 | CN(Cc1coc(-c2ccccc2)n1)c1nc(=O)c2cc(S(C)(=O)=O)cc([N+](=O)[O-])c2s1 | 0.021 µM | IC50 [4]: 940 nM; half-life [2]: 21 min; CLint scaled [3]: 82.7 mL/min/kg
24 | CN(Cc1cn(-c2cccc(Br)c2)nn1)c1nc(=O)c2cc(S(C)(=O)=O)cc([N+](=O)[O-])c2s1 | 0.044 µM | –
25 | CN(Cc1cn(-c2cnoc2)nn1)c1nc(=O)c2cc(S(C)(=O)=O)cc([N+](=O)[O-])c2s1 | 0.065 µM | –
26 | CN(Cc1nnc(-c2ccc(F)cc2)o1)c1nc(=O)c2cc(S(C)(=O)=O)cc([N+](=O)[O-])c2s1 | 0.061 µM | –

Row | SMILES | MIC [1] | other results
27 | CN(Cc1cn(-c2cccc(I)c2)nn1)c1nc(=O)c2cc(S(C)(=O)=O)cc([N+](=O)[O-])c2s1 | 0.055 µM | –
28 | CCS(=O)(=O)c1cc([N+](=O)[O-])c2sc(N3CCN(CC4CCCCC4)CC3)nc(=O)c2c1 | < 0.001 µM | –
29 | CN(Cc1cn(-c2cc(F)cc(F)c2)nn1)c1nc(=O)c2cc(S(C)(=O)=O)cc([N+](=O)[O-])c2s1 | 0.022 µM | –
30 | Cc1ccc(-n2cc(CN(C)c3nc(=O)c4cc(S(C)(=O)=O)cc([N+](=O)[O-])c4s3)nn2)cc1 | 0.115 µM | –
31 | CN(Cc1csc(-c2cccc(F)c2)n1)c1nc(=O)c2cc(S(C)(=O)=O)cc([N+](=O)[O-])c2s1 | 0.024 µM | –
32 | CCN(Cc1cn(-c2ccccc2)nn1)c1nc(=O)c2cc(S(C)(=O)=O)cc([N+](=O)[O-])c2s1 | 0.201 µM | –
33 | COc1cccc(-n2cc(CN(C)c3nc(=O)c4cc(S(C)(=O)=O)cc([N+](=O)[O-])c4s3)nn2)c1 | 0.199 µM | –
34 | CN(Cc1nnc(-c2ccccc2)s1)c1nc(=O)c2cc(S(C)(=O)=O)cc([N+](=O)[O-])c2s1 | 0.037 µM | half-life [2]: 13.2 min; CLint scaled [3]: 128 mL/min/kg
35 | CC(C)S(=O)(=O)c1cc([N+](=O)[O-])c2sc(N3CCN(CC4CCCCC4)CC3)nc(=O)c2c1 | < 0.001 µM | –
36 | CN(Cc1cn(-c2cccnc2)nn1)c1nc(=O)c2cc(S(C)(=O)=O)cc([N+](=O)[O-])c2s1 | 0.533 µM | –
37 | CN(Cc1cn(-c2cccc(C(F)(F)F)c2)nn1)c1nc(=O)c2cc(S(C)(=O)=O)cc([N+](=O)[O-])c2s1 | 0.044 µM | –
38 | CN(c1nc(=O)c2cc(S(C)(=O)=O)cc([N+](=O)[O-])c2s1)C1(c2cn(-c3ccccc3)nn2)CC1 | > 4 µM | –
39 | CN(Cc1nnc(-c2ccc(F)cc2F)s1)c1nc(=O)c2cc(S(C)(=O)=O)cc([N+](=O)[O-])c2s1 | 0.023 µM | –
40 | CN(Cc1nnc(-c2ccc(F)cc2)s1)c1nc(=O)c2cc(S(C)(=O)=O)cc([N+](=O)[O-])c2s1 | 0.047 µM | –
41 | CN(Cc1cn(-c2cc(F)ccc2F)nn1)c1nc(=O)c2cc(S(C)(=O)=O)cc([N+](=O)[O-])c2s1 | 0.011 µM | –
42 | CN(Cc1nnc(-c2ccc(F)c(F)c2)s1)c1nc(=O)c2cc(S(C)(=O)=O)cc([N+](=O)[O-])c2s1 | 0.031 µM | –
43 | CN(Cc1coc(-c2ccc(F)cc2)n1)c1nc(=O)c2cc(S(C)(=O)=O)cc([N+](=O)[O-])c2s1 | 0.031 µM | –
44 | C[C@@H](c1cn(-c2ccccc2)nn1)N(C)c1nc(=O)c2cc(S(C)(=O)=O)cc([N+](=O)[O-])c2s1 | 0.252 µM | –
45 | CN(Cc1ccc2c(c1)OCCO2)c1nc(=O)c2cc(S(C)(=O)=O)cc([N+](=O)[O-])c2s1 | 0.066 µM | –
46 | CN(Cc1cn(-c2cccc(Cl)c2)nn1)c1nc(=O)c2cc(S(C)(=O)=O)cc([N+](=O)[O-])c2s1 | 0.089 µM | –
47 | CN(Cc1cn(-c2ccccc2F)nn1)c1nc(=O)c2cc(S(C)(=O)=O)cc([N+](=O)[O-])c2s1 | 0.031 µM | –
48 | CN(Cc1cn(Cc2cnoc2)nn1)c1nc(=O)c2cc(S(C)(=O)=O)cc([N+](=O)[O-])c2s1 | > 2 µM | –
49 | C[C@H](c1cn(-c2ccccc2)nn1)N(C)c1nc(=O)c2cc(S(C)(=O)=O)cc([N+](=O)[O-])c2s1 | > 4.2 µM | –
50 | CN(Cc1ccccc1)c1nc(=O)c2cc(S(C)(=O)=O)cc([N+](=O)[O-])c2s1 | 0.253 µM | –
51 | CN(Cc1nnc(-c2ccc(F)c(F)c2)o1)c1nc(=O)c2cc(S(C)(=O)=O)cc([N+](=O)[O-])c2s1 | 0.043 µM | –

Source: ChEMBL document CHEMBL4828770, “Structural and Activity Relationships of 6-Sulfonyl-8-Nitrobenzothiazinones as Antitubercular Agents” (J Med Chem, 2021)
